This test concerns the target heteromeric KCNQ2/3 channels (Homo sapiens, UniProt O43525+O43526). Description: TEVC in Xenopus oocytes. Conditions: for effect of compound alone on KCNQ2/3 current: 100 µM. Type of test: cell-based.
The mark [1] stands for this setting: Ctrl with 2 µg/ml Pertussis toxin, no GABA.
Where [2] appears, read: 100 µM compound with 10 µM GABA.

The values that follow come from publication PMC5945843, “Direct neurotransmitter activation of voltage-gated potassium channels” (Nature Communications, 2018).

“And” between values parts separate entries of the source, which are not always exact repeats. Equal entries are not always repeated. “Also recorded” adds a separate entry of the source. Where two headings read alike, the source gives them in different places. A value given as a limit tells only on which side of the number the result lay.

Sequence of heteromeric KCNQ2/3 channels (O43526 whole entry): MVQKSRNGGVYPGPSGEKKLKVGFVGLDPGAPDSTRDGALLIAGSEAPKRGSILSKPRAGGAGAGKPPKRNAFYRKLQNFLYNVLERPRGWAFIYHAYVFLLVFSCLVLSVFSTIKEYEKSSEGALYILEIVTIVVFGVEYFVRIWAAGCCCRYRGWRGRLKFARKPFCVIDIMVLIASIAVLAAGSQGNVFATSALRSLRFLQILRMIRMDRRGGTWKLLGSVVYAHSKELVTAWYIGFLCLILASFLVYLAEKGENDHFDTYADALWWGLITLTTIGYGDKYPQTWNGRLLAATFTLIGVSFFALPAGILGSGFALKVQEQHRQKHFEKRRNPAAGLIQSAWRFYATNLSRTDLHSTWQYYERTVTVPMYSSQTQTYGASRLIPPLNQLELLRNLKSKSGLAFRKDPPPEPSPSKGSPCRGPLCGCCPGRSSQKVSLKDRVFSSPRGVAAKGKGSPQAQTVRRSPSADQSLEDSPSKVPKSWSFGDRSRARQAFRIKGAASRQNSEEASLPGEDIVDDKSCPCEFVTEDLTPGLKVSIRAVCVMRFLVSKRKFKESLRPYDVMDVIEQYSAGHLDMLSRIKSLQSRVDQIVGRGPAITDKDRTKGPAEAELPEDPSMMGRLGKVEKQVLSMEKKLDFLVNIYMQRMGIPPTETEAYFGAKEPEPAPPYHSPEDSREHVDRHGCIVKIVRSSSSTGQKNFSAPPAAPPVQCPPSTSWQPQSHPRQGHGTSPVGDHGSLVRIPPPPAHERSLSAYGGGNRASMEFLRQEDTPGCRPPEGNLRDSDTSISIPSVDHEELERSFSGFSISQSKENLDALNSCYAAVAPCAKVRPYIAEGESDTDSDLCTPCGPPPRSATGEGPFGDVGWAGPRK
Sequence of heteromeric KCNQ2/3 channels (O43525 whole entry): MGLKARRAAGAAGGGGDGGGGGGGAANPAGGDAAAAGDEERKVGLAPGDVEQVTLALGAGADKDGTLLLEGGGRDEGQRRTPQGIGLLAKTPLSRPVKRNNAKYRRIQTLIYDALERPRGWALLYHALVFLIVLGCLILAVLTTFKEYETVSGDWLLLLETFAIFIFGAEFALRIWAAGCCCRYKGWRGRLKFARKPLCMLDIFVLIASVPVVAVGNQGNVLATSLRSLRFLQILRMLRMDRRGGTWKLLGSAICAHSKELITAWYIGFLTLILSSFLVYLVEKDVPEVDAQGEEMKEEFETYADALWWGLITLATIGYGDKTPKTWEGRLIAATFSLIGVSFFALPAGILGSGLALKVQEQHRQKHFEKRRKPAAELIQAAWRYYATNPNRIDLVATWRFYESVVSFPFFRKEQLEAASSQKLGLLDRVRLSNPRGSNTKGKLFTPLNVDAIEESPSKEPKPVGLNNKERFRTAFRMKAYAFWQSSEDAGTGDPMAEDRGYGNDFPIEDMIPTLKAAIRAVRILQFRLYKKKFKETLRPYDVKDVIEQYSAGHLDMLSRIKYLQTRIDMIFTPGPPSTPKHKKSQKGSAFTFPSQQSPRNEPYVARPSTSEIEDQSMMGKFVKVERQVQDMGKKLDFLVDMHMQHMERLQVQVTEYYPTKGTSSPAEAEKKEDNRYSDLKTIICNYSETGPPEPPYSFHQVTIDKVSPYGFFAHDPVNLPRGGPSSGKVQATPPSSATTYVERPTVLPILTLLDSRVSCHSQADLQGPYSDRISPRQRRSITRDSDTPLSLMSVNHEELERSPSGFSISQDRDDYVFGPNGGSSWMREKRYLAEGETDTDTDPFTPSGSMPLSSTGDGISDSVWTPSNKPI
Source text: cRNA transcripts encoding human KCNQ1, KCNQ2, KCNQ3, KCNQ4, KCNQ5, KCNA1, or KCNE1 were generated by in vitro transcription using the T7 polymerase mMessage mMachine kit (Thermo Fisher Scientific), after vector linearization, from complementary DNA (cDNA) sub-cloned into plasmids incorporating Xenopus laevis β-globin 5′ and 3′ untranslated regions flanking the coding region to enhance translation and cRNA stability. cRNA was quantified by spectrophotometry. […] Defolliculated stage V and VI Xenopus laevis oocytes (Ecocyte Bioscience, Austin, TX) were injected with Kv channel α subunit cRNAs (5–10 ng).
Oocytes were placed in a small-volume oocyte bath (Warner) and viewed with a dissection microscope. Chemicals were sourced from Sigma. Bath solution was (in mM): 96 NaCl, 4 KCl, 1 MgCl2, 1 CaCl2, 10 HEPES (pH 7.6). […] Valeric acid was stored as a 5 mM stock in Ringer’s solution at 4 °C and diluted to working concentrations each experimental day. β-hydroxybutyric acid was stored at 4 °C as a 480 mM stock in 100% ethanol and diluted to working concentrations each experimental day. All compounds were introduced to the recording bath via gravity perfusion at a constant flow of 1 ml per min for 3 min prior to recording. Pipettes were of 1–2 MΩ resistance when filled with 3 M KCl. Currents were recorded in response to pulses between −80 mV and +40 mV at 20 mV intervals, or a single pulse to +40 mV, from a holding potential of −80 mV, to yield current-voltage relationships, current magnitude, and for quantifying activation rate. Deactivation was recorded at −80 mV after a single activating pulse to +40 mV, from a holding potential of −80 mV. […] TEVC data analysis was performed with Clampfit (Molecular Devices) and Graphpad Prism software (GraphPad, San Diego, CA, USA); values are stated as mean ± SEM. Normalized tail currents were plotted versus prepulse voltage and fitted with a single Boltzmann function:1 g=(A1-A2)/1+expV1/2-V∕VS+A2, where g is the normalized tail conductance, A1 is the initial value at −∞, A2 is the final value at +∞, V1/2 is the half-maximal voltage of activation, and VS the slope factor. Activation and deactivation kinetics were fitted with single exponential functions.

Consider Pertussis toxin, for which, under setting [1], the “Non-normalized tail current V0.5” value is recorded as -41.9 ± 6.3 mV, the “Normalized tail current V0.5” value is on record as -40.9 ± 1.4 mV and the Slope is on record as 8.8 ± 1.4 mV.
Molecule `CCCCC(=O)O` [valeric acid, reference compound] returned a Slope (500 µM Valeric acid, Ctrl 9.1 ± 0.5) of 8.5 ± 0.6 mV and a Slope (500 mM Valeric acid, Ctrl 9.1 ± 0.5) of 8.5 ± 0.6 mV. In addition, the “Normalized tail current V0.5” value (500 µM Valeric acid, Ctrl -44.2 ± 0.6) is -45.1 ± 0.6 mV and the “Normalized tail current V0.5” value (500 mM Valeric acid, Ctrl -44.2 ± 0.6) is -45.1 ± 0.6 mV. Besides, the “Non-normalized tail current V0.5” value is, setting by setting: (500 µM Valeric acid, Ctrl -44.5 ± 5.4) -45.6 ± 4.9 mV; (500 mM Valeric acid, Ctrl -44.5 ± 5.4) -45.9 ± 4.9 mV. Also, the “activity on KCNQ2/3” value (up to 5 mM) was “inactive; also recorded: no effects”.
Consider `NCC(O)CC(=O)O` (stereo not drawn) [GABOB, γ-amino-β-hydroxybutyric acid], for which the “agonist character compared to BHB and GABA” value is “lower efficacy partial agonist”; the “effect on retigabine activation of KCNQ2/3” value is on record as “reduces the efficacy”. The molecule also had a Slope (0.01 µM GABOB, Ctrl 10.3 ± 1.3) of 11.1 ± 1.8 mV. Also, the “Non-normalized tail current V0.5” value (0.01 µM GABOB, Ctrl -43.8 ± 3.9) is -42.7 ± 5.0 mV. The “Normalized tail current V0.5” value (0.01 µM GABOB, Ctrl -44.9 ± 1.5) is given as -42.8 ± 2.0 mV. This molecule came in with a Slope (0.1 µM GABOB, Ctrl 10.3 ± 1.3) of 10.6 ± 1.6 mV. Under “0.1 µM GABOB, Ctrl -43.8 ± 3.9”, the “Non-normalized tail current V0.5” value is reported as -45.8 ± 5.1 mV. For the setting “0.1 µM GABOB, Ctrl -44.9 ± 1.5”, the “Normalized tail current V0.5” value is recorded as -46.6 ± 1.9 mV. For the setting “1 µM GABOB, Ctrl 10.3 ± 1.3”, this molecule displayed a Slope of 10.1 ± 1.2 mV. The “Non-normalized tail current V0.5” value (1 µM GABOB, Ctrl -43.8 ± 3.9) was -46.4 ± 4.7 mV. Also, the “Normalized tail current V0.5” value (1 µM GABOB, Ctrl -44.9 ± 1.5) was -47.1 ± 1.4 mV. This molecule also gave a Slope (10 µM GABOB, Ctrl 10.3 ± 1.3) of 9.6 ± 0.9 mV. In addition, under “10 µM GABOB, Ctrl -43.8 ± 3.9”, the “Non-normalized tail current V0.5” value was -46.8 ± 4.5 mV. Besides, where the note is “10 µM GABOB, Ctrl -44.9 ± 1.5”, the “Normalized tail current V0.5” value was -48.1 ± 1.2 mV. The Slope (100 µM GABOB, Ctrl 10.3 ± 1.3) is 9.3 ± 0.8 mV. The “Non-normalized tail current V0.5” value (100 µM GABOB, Ctrl -43.8 ± 3.9) is -46.3 ± 4.2 mV. For the same molecule, the “Normalized tail current V0.5” value (100 µM GABOB, Ctrl -44.9 ± 1.5) is listed as -47.8 ± 0.9 mV. In addition, the “effect on GABA activation of KCNQ2/3” value under setting [2] is on record as “diminished the KCNQ2/3-activating efficacy of GABA”. The molecule also registered a Slope (1 mM GABOB, Ctrl 10.3 ± 1.3) of 9.2 ± 0.7 mV. Where the note is “1 mM GABOB, Ctrl -43.8 ± 3.9”, the “Non-normalized tail current V0.5” value is reported as -46.7 ± 4.0 mV. Moreover, the “Normalized tail current V0.5” value (1 mM GABOB, Ctrl -44.9 ± 1.5) was -48.0 ± 0.9 mV. The “lowering of retigabine efficacy” value (at -60 mV) is recorded as “almost fourfold”. In addition, for the setting “at −60 mV”, a half-maximal response (EC50) required 100 ± 10 nM.
As for `C[C@H](NC[C@H](O)CP(=O)(O)Cc1ccccc1)c1ccc(Cl)c(Cl)c1` [CGP55845, reference compound], the “effect of compound alone on KCNQ2/3 current” value (“effect of compound alone” below) is on record as “neither altered KCNQ2/3 currents alone”. In addition, for the setting “100 µM CGP, Ctrl 6.7 ± 0.3”, the Slope came to 6.6 ± 0.7 mV. For the same molecule, the “Non-normalized tail current V0.5” value (100 µM CGP, Ctrl -44.9 ± 3.5) is reported as -45.6 ± 3.7 mV. For the same molecule, where the note is “100 µM CGP, Ctrl -45.1 ± 0.3”, the “Normalized tail current V0.5” value is -47.1 ± 1.1 mV. Moreover, under setting [2], the “effect on GABA activation of KCNQ2/3” value is given as “nor did it diminish GABA activation of KCNQ2/3”.
For `NCC(CC(=O)O)c1ccc(Cl)cc1` (stereo not drawn) [baclofen, reference compound], the “effect of compound alone” value is listed as “insensitive”. This molecule showed a Slope (100 µM Baclofen, Ctrl 9.3 ± 0.3) of 9.2 ± 0.5 mV. Further, the “Non-normalized tail current V0.5” value (100 µM Baclofen, Ctrl -42.6 ± 2.3) is listed as -45.4 ± 2.5 mV. Moreover, the “Normalized tail current V0.5” value (100 µM Baclofen, Ctrl -44.2 ± 0.4) is -46.4 ± 0.6 mV.
Turning to `NCC(CS(=O)(=O)O)c1ccc(Cl)cc1` (stereo not drawn) [saclofen, reference compound], the “effect on GABA activation of KCNQ2/3” value is “nor did it diminish GABA activation of KCNQ2/3” and the “effect of compound alone” value is reported as “neither altered KCNQ2/3 currents alone”. Also, the Slope (100 µM Saclofen, Ctrl 5.6 ± 1.1) is on record as 5.5 ± 0.8 mV. For the same molecule, under “100 µM Saclofen, Ctrl -41.1 ± 6.7”, the “Non-normalized tail current V0.5” value is recorded as -42.8 ± 6.6 mV. Further, the “Normalized tail current V0.5” value (100 µM Saclofen, Ctrl -42.3 ± 0.8) is given as -42.6 ± 0.8 mV.
`CC(=O)OCC[N+](C)(C)C` [ACh, acetylcholine]: the Slope was 4.8 ± 2.7 mV and 3.8 ± 6.5 mV and 5.1 ± 2.5 mV and 5.6 ± 2.7 mV and 5.1 ± 1.9 mV; the “concentration giving maximal effect” value was at least 1 µM; the “effect on KCNQ2/3 activity via endogenous mAChRs” value is “inhibited”.
Take `NCCc1ccc(O)c(O)c1` [dopamine]: the “effect of compound alone” value is “no effect”. For the setting “100 µM Dopamine, Ctrl 8.4 ± 1.5”, this molecule gave a Slope of 7.2 ± 0.6 mV. Also, the “Normalized tail current V0.5” value (100 µM Dopamine, Ctrl -40.8 ± 1.4) is -41.9 ± 0.6 mV. In addition, the “Non-normalized tail current V0.5” value (100 µM Dopamine, Ctrl -41.6 ± 5.3) is -41.8 ± 3.6 mV.

By EC50 is commonly meant the concentration at which the effect is half-maximal. High values mean a need for much substance, low ones an effect from little substance.
